Assay results published in patent EP1137645B1, “ALPHA-METHYLBENZYL-CONTAINING THIOUREA INHIBITORS OF HERPES VIRUSES CONTAINING A […] GROUP” (Wyeth, priority 1998, dated 2000).
≈ marks a conversion by molar mass, not a printed value. Read-outs that look alike come from different tables or passages of the source.

Columns and labels:
[1] = test system: HCMV recombinant mutant virus whose genome contains the prokaryotic beta-glucuronidase gene; test: microbe, parasite or virus in culture; assay type: cell-based, human cytomegalovirus; conditions: Human betaherpesvirus 5, Fibroblast
Method in brief: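 Human foreskin fibroblasts infected with HCMV recombinant carrying beta-glucuronidase under a viral promoter (e.g. RV145) in presence of compound. At 96 h post-infection, lysates assayed for beta-glucuronidase by colorimetric or fluorogenic substrate as replication readout; IC50 estimated from varying compound amounts.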

[2] = test system: HSV- I; test: HSV antiviral (ELISA) assay; assay type: cell-based; conditions: read-out: IC50 (ug/ml) HSV
Method in brief: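 Vero cells in DMEM with 2% FBS treated with compound 30 min before HSV-1 infection (MOI 0.006), then incubated ~24 h at 37°C. Viral replication measured by ELISA against glycoprotein D with β-galactosidase-linked secondary and fluorogenic substrate (ex 365/em 450 nm); IC50 relative to untreated fluorescence.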

[3] = test system: VZV strain Ellen; test: VZV antiviral (ELISA) assay; assay type: cell-based
Method in brief: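 HFF cells infected with VZV Ellen at multiplicity below 0.1 overnight, then mixed infected/uninfected cells seeded with compound in DMEM/2% FBS and incubated three days at 37°C, 5% CO2.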

[4] = read-out: IC50 ug/ml HCMV, HCMV, human foreskin fibroblasts
[5] = Human alphaherpesvirus 3, HFF, read-out: % inhibition 10 ug/ml VZV
[6] = Human alphaherpesvirus 3, HFF, read-out: IC50 (ug/ml) VZV
[7] = Human alphaherpesvirus 3, read-out: % inhibition 10 ug/ml VZV, 10 ug/ml, VZV strain Ellen, HFF cells, ELISA
[8] = Human alphaherpesvirus 3, VZV strain Ellen, HFF cells, ELISA, read-out: IC50 (ug/ml) VZV
[9] = Human alphaherpesvirus 3, HFF, read-out: IC50 (ug/ml) VZV, VZV strain Ellen, HFF cells, ELISA

Structure (SMILES)	IC50 [1, 4] [µg/mL]	IC50 ([2]; HSV- I, Vero cells, ELISA) [µg/mL]	inhibition at 10 µg/mL [3, 5] [%]	IC50 [3, 6] [µg/mL]	IC50 ([1]; read-out: IC50 ug/ml HCMV) [µg/mL]	inhibition at 10 µg/mL [3, 7] [%]	IC50 [3, 8] [µg/mL]	IC50 ([2]; Vero) [µg/mL]	IC50 [3, 9] [µg/mL]
CSc1ccc(NC(=S)Nc2ccc(NC(=O)c3ccccc3F)cc2Cl)cc1Cl [Example 460, N-{3-Chloro-4-[3-(3-chloro-4-methylsulfanyl-phenyl)-thioureido]-phenyl}-2-fluoro-benzamide]	2 (≈ 4.16 µM)	0.09 (≈ 0.187 µM)	50	> 10	–	–	–	–	–
N#Cc1cccc(NC(=S)Nc2ccc(NC(=O)c3ccccc3F)cc2)c1 [Example 461, N-{4-[3-(3-Cyano-phenyl)-thioureido]-phenyl}-2-fluoro-benzamide]	–	> 10	–	–	> 10	33	> 10	–	–
NNC(=O)c1cccc(NC(=S)Nc2ccc(NC(=O)c3ccccc3F)cc2)c1 [Example 463, 2-Fluoro-N-{4-[3-(3-hydrazinocarbonyl-phenyl)-thioureido]-phenyl}-benzamide]	–	> 10	–	–	> 10	19	> 10	–	–
Nc1c(Cl)cccc1NC(=S)Nc1ccc(NC(=O)c2c(F)cccc2F)cc1 [Example 465, N-{4-[3-(2-Amino-3-chloro-phenyl)-thioureido]-phenyl}-2,6-difluoro-benzamide]	> 10	> 10	31	> 10	–	–	–	–	–
O=C(Nc1ccc(NC(=S)Nc2cccc(O)c2)cc1)c1ccccc1F [Example 475, 2-Fluoro-N-{4-[3-(3-hydroxy-phenyl)-thioureido]-phenyl}-benzamide]	–	5 (≈ 13.1 µM)	–	–	> 10	28	> 10	–	–
O=C(Nc1ccc(NC(=S)Nc2cccc(CO)c2)cc1)c1ccccc1F [Example 476, 2-Fluoro-N-{4-[3-(3-hydroxymethyl-phenyl)-thioureido]-phenyl}-benzamide]	–	10 (≈ 25.3 µM)	–	–	> 10	21	> 10	–	–
CC(=O)Nc1cccc(NC(=S)Nc2ccc(NC(=O)c3ccccc3F)cc2)c1 [Example 477, N-{4-[3-(3-Acetylamino-phenyl)-thioureido]-phenyl}-2-fluoro-benzamide]	–	> 10	–	–	> 10	15	> 10	–	–
O=C(Nc1ccc(NC(=S)Nc2ccc3scnc3c2)cc1)c1ccccc1F [Example 484, N-[4-(3-Benzothiazol-5-yl-thioureido)-phenyl]-2-fluoro-benzamide]	> 10	0.4 (≈ 0.947 µM)	28	> 10	–	–	–	–	–
COc1cccc(NC(=S)Nc2ccc(NC(=O)c3ccccc3F)cc2)c1 [Example 487, 2-Fluoro-N-{4-[3-(3-methoxy-phenyl)-thioureido]-phenyl}-benzamide]	–	4 (≈ 10.1 µM)	–	–	10 (≈ 25.3 µM)	48	> 10	–	–
CN(C)c1ccc(Cl)cc1NC(=S)Nc1ccc(NC(=O)c2ccccc2F)cc1 [Example 490, N-{4-[3-(5-Chloro-2-dimethylamino-phenyl)-thioureido]-phenyl}-2-fluoro-benzamide]	2.5 (≈ 5.64 µM)	1 (≈ 2.26 µM)	68	> 10	–	–	–	–	–
CC(N=[N+]=[N-])c1ccc(NC(=S)Nc2ccc(NC(=O)c3ccccc3F)cc2)cc1Cl (stereo not drawn) [Example 492, N-(4-{3-[4-(1-Azido-ethyl)-3-chloro-phenyl]-thioureido}-phenyl)-2-fluoro-benzamide]	2 (≈ 4.26 µM)	> 10	32	> 10	–	–	–	–	–
O=C(Nc1ccc(NC(=S)Nc2ccc3[nH]cnc3c2)cc1)c1ccccc1F [Example 496, N-{4-[3-(1H-Benzoimidazol-5-yl)-thioureido]-phenyl}-2-fluoro-benzamide]	–	> 10	–	–	10 (≈ 24.7 µM)	25	> 10	–	–
Cc1nc2cc(NC(=S)Nc3ccc(NC(=O)c4ccccc4F)cc3)ccc2[nH]1 [Example 497, 2-Fluoro-N-{4-[3-(2-methyl-1H-benzoimidazol-5-yl)-thioureido]-phenyl}-benzamide]	–	> 10	–	–	10 (≈ 23.8 µM)	10	> 10	–	–
Nc1nccc(-c2ccc(NC(=S)Nc3ccc(NC(=O)c4ccccc4F)cc3)cc2Cl)n1 [Example 502, N-(4-{3-[4-(2-Amino-pyrimidin-4-yl)-3-chloro-phenyl]-thioureido}-phenyl)-2-fluoro-benzamide]	1.8 (≈ 3.65 µM)	> 10	13	> 10	–	–	–	–	–
CN(C)c1c(Cl)cccc1NC(=S)Nc1ccc(NC(=O)c2c(F)cccc2F)cc1 [Example 504, N-{4-[3-(3-Chloro-2-dimethylamino-phenyl)-thioureido]-phenyl}-2,6-difluoro-benzamide]	2 (≈ 4.34 µM)	6 (≈ 13 µM)	99	4.5 (≈ 9.76 µM)	–	–	–	–	–
O=C(Nc1ccc(NC(=S)NCc2cccc(Cl)c2)cc1)c1ccccc1F [Example 511, N-{4-[3-(3-Chloro-benzyl)-thioureido]-phenyl}-2-fluoro-benzamide]	> 10	> 10	10	> 10	–	–	–	–	–
O=C(Nc1ccc(NC(=S)Nc2cc(C(F)(F)F)cc(C(F)(F)F)c2)cc1)c1ccccc1F [Example 517, N-{4-[3-(3,5-Bis-trifluoromethyl-phenyl)-thioureido]-phenyl}-2-fluoro-benzamide]	–	> 10	–	–	1.1 (≈ 2.19 µM)	5	> 10	–	–
Nc1c(Cl)cc(NC(=S)Nc2ccc(NC(=O)c3ccccc3F)cc2)cc1Cl [Example 518, N-{4-[3-(4-Amino-3,5-dichloro-phenyl)-thioureido]-phenyl}-2-fluoro-benzamide]	4 (≈ 8.9 µM)	0.25 (≈ 0.556 µM)	32	> 10	–	–	–	–	–
Nc1c(Br)cc(NC(=S)Nc2ccc(NC(=O)c3ccccc3F)cc2)cc1Br [Example 519, N-{4-[3-(4-Amino-3,5-dibromo-phenyl)-thioureido]-phenyl}-2-fluoro-benzamide]	–	0.4 (≈ 0.743 µM)	–	–	1.7 (≈ 3.16 µM)	18	> 10	–	–
CN(C)c1cc(Cl)cc(NC(=S)Nc2ccc(NC(=O)c3ccccc3F)cc2)c1 [Example 523, N-{4-[3-(3-Chloro-5-dimethylamino-phenyl)-thioureido]-phenyl}-2-fluoro-benzamide]	3.2 (≈ 7.22 µM)	0.6 (≈ 1.35 µM)	75	4 (≈ 9.03 µM)	–	–	–	–	–
O=C(Nc1ccc(NC(=S)Nc2ccc3[nH]nnc3c2)cc1)c1c(F)cccc1F [Example 527, N-{4-[3-(1H-Benzotriazol-5-yl)-thioureido]-phenyl}-2,6-difluoro-benzamide]	–	> 10	–	–	> 10	20	> 10	–	–
O=C(Nc1ccc(NC(=S)Nc2cc(Br)cc(C(F)(F)F)c2)cc1)c1ccccc1F [Example 531, N-{4-[3-(3-Bromo-5-trifluoromethyl-phenyl)-thioureido]-phenyl}-2-fluoro-benzamide]	5 (≈ 9.76 µM)	–	–	–	–	–	–	> 10	6 (≈ 11.7 µM)
O=C(Nc1ccc(NC(=S)NCc2ccccc2)cc1)c1ccccc1F [Example 536, N-[4-(3-Benzyl-thioureido)-phenyl]-2-fluoro-benzamide]	–	> 10	–	–	> 10	–	> 10	–	–
O=C(Nc1ccc(NC(=S)NCc2ccc(Cl)c(Cl)c2)cc1)c1ccccc1F [Example 538, N-{4-[3-(3,4-Dichloro-benzyl)-thioureido]-phenyl}-2-fluoro-benzamide]	> 10	–	–	–	–	–	–	> 10	10 (≈ 22.3 µM)
O=C(Nc1ccc(NC(=S)NCc2ccc3c(c2)OCO3)cc1)c1ccccc1F [Example 540, N-[4-(3-Benzo[1,3]dioxol-5-ylmethyl-thioureido)-phenyl]-2-fluoro-benzamide]	–	> 10	–	–	> 0.5	–	> 10	–	–
